Measurements published in patent US12723063B2, “GIPR-agonist compounds” (Eli Lilly and Company, priority 2019, dated 2026).
*1 amine or outer side, *2 acyl side, *3 side chain or, on linkers, in order; H or OH if unused. Where a SMILES comes first, the peptide text is derived from it. Side-chain parts run from the residue outwards. [ ]: non-standard residue; d: D form. The star is where a group is joined. C20 diacid = O=C(O)CCCCCCCCCCCCCCCCCCC(=O)*; C18 diacid = O=C(O)CCCCCCCCCCCCCCCCC(=O)*; γGlu = O=C(O)[C@H](CCC(=O)[*:2])N[*:1]; αMeF = C[C@](N)(Cc1ccccc1)C(=O)O; 4Pal = N[C@@H](Cc1ccncc1)C(=O)O; αMeL = CC(C)C[C@](C)(N)C(=O)O; AEEA = NCCOCCOCC(=O)O; Aib = CC(C)(N)C(=O)O

Experiments:
[1] = biological target: T1, human GLP-1R (Homo sapiens, UniProt P43220); test: [125I]-GLP-1 binding, SPA with WGA beads, 0.1% bacitracin; details: geometric mean, read-out: hGLP1R Ki
T1 construct: expressed in transfected cells; crude membranes
Summary of the method: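 Binding buffer was 25 mM HEPES pH 7.4 with 2.5 mM CaCl2, 1 mM MgCl2, 0.1% (w/v) bacitracin, 0.003% Tween-20 and EDTA-free protease inhibitors. Four-parameter regression gave IC50, converted to Ki (geometric mean, SEM, n independent days).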

[2] = biological target: T2, human GIPR (Homo sapiens, UniProt P48546); test: [125I]-GIP binding, SPA with WGA beads, 0.1% bacitracin; details: geometric mean, read-out: hGIPR Ki
T2 construct: expressed in transfected cells; crude membranes
T2 sequence (P48546 22-466): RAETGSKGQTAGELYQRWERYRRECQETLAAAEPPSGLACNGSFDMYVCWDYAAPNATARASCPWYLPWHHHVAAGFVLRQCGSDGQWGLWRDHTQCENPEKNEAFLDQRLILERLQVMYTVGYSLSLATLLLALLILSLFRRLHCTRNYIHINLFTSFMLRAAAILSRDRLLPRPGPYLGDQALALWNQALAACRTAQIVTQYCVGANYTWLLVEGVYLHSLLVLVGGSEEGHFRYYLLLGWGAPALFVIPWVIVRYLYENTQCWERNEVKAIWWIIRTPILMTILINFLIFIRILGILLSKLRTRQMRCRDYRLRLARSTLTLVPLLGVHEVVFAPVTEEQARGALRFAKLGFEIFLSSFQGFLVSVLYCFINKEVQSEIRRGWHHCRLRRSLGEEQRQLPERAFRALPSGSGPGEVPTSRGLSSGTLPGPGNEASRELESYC
Summary of the method: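 Ki values are geometric means (SEM, n independent days), derived from four-parameter nonlinear regression of IC50. Membranes came from hGIPR-expressing CHO cells.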

T1 sequence (P43220 24-463): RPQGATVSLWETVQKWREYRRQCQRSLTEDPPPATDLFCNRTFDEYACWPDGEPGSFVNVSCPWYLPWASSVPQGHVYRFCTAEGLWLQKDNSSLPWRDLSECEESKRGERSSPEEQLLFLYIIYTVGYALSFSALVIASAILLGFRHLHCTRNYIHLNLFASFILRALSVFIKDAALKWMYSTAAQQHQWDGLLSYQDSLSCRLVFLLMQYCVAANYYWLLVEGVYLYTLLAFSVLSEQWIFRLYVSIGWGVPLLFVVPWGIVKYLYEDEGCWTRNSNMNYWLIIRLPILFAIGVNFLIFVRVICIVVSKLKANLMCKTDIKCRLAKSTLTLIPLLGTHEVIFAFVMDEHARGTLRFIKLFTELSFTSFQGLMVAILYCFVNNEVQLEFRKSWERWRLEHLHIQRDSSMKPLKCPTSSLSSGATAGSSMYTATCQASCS

Q: CC[C@H](C)[C@H](NC(=O)[C@H](Cc1ccccc1)NC(=O)[C@@H](NC(=O)CNC(=O)[C@H](CCC(=O)O)NC(=O)C(C)(C)NC(=O)[C@@H](N)Cc1ccc(O)cc1)[C@@H](C)O)C(=O)N[C@@H](CO)C(=O)N[C@@H](CC(=O)O)C(=O)N[C@@H](Cc1ccc(O)cc1)C(=O)N[C@@H](CO)C(=O)N[C@H](C(=O)N[C@@](C)(CC(C)C)C(=O)N[C@@H](CC(C)C)C(=O)N[C@@H](CC(=O)O)C(=O)N[C@@H](CCCCN)C(=O)N[C@@H](CCCCNC(=O)COCCOCCNC(=O)COCCOCCNC(=O)CC[C@H](NC(=O)CCCCCCCCCCCCCCCCCCC(=O)O)C(=O)O)C(=O)N[C@@H](Cc1c[nH]cn1)C(=O)N[C@@H](CCC(N)=O)C(=O)NC(C)(C)C(=O)N[C@@H](CC(=O)O)C(=O)N[C@@H](Cc1ccccc1)C(=O)N[C@H](C(=O)N[C@@H](CCC(=O)O)C(=O)N[C@@H](Cc1c[nH]c2ccccc12)C(=O)N[C@@H](CC(C)C)C(=O)N[C@@H](CC(C)C)C(=O)N[C@@H](C)C(=O)NCC(=O)NCC(=O)N1CCC[C@H]1C(=O)N[C@@H](CO)C(=O)N[C@@H](CO)C(=O)NCC(=O)N[C@@H](C)C(=O)N1CCC[C@H]1C(=O)N1CCC[C@H]1C(=O)N1CCC[C@H]1C(=O)N[C@@H](CO)C(N)=O)C(C)C)[C@@H](C)CC [Example 54] (H-Y[Aib]EGTFISDYSI[αMeL]LDKK([AEEA-AEEA-γGlu-C20 diacid])HQ[Aib]DFVEWLLAGGPSSGAPPPS-NH2) was tested. Which Ki [1] did it give?
A: 49.9 nM

Q: What about the Ki [2] of the same molecule?
A: 0.0326 nM

Q: With CC[C@H](C)[C@H](NC(=O)[C@H](CC(C)C)NC(=O)[C@@H](NC(=O)CNC(=O)[C@H](CCC(=O)O)NC(=O)C(C)(C)NC(=O)[C@@H](N)Cc1ccc(O)cc1)[C@@H](C)O)C(=O)N[C@@H](CO)C(=O)N[C@@H](CC(=O)O)C(=O)N[C@@H](Cc1ccc(O)cc1)C(=O)N[C@@H](CO)C(=O)N[C@H](C(=O)N[C@@](C)(CC(C)C)C(=O)N[C@@H](CC(C)C)C(=O)N[C@@H](CC(=O)O)C(=O)N[C@@H](CCCCN)C(=O)N[C@@H](CCCCNC(=O)COCCOCCNC(=O)COCCOCCNC(=O)CC[C@H](NC(=O)CCCCCCCCCCCCCCCCCCC(=O)O)C(=O)O)C(=O)N[C@@H](Cc1c[nH]cn1)C(=O)N[C@@H](CCC(N)=O)C(=O)NC(C)(C)C(=O)N[C@@H](CCC(=O)O)C(=O)N[C@@H](Cc1ccccc1)C(=O)N[C@H](C(=O)N[C@@H](CCC(=O)O)C(=O)N[C@@H](Cc1ccc(O)cc1)C(=O)N[C@@H](CC(C)C)C(=O)N[C@@H](CC(C)C)C(=O)N[C@@H](CCC(=O)O)C(=O)N[C@H](C(=O)NCC(=O)N1CCC[C@H]1C(=O)N[C@@H](CO)C(=O)N[C@@H](CO)C(=O)NCC(=O)N[C@@H](C)C(=O)N1CCC[C@H]1C(=O)N1CCC[C@H]1C(=O)N1CCC[C@H]1C(=O)N[C@@H](CO)C(N)=O)[C@@H](C)O)C(C)C)[C@@H](C)CC [Example 72] (H-Y[Aib]EGTLISDYSI[αMeL]LDKK([AEEA-AEEA-γGlu-C20 diacid])HQ[Aib]EFVEYLLETGPSSGAPPPS-NH2) as the molecule, how does the Ki [1] read?
A: 437 nM

Q: And the Ki [2]?
A: 0.0594 nM

Q: For CC[C@H](C)[C@H](NC(=O)[C@H](CO)NC(=O)[C@H](Cc1ccc(O)cc1)NC(=O)[C@H](CC(=O)O)NC(=O)[C@H](CO)NC(=O)[C@@H](NC(=O)[C@](C)(Cc1ccccc1)NC(=O)[C@@H](NC(=O)CNC(=O)[C@H](CCC(=O)O)NC(=O)C(C)(C)NC(=O)[C@@H](N)Cc1ccc(O)cc1)[C@@H](C)O)[C@@H](C)CC)C(=O)N[C@@H](C)C(=O)N[C@@H](CC(C)C)C(=O)N[C@@H](CC(=O)O)C(=O)N[C@@H](CCCCN)C(=O)N[C@@H](CCCCNC(=O)COCCOCCNC(=O)COCCOCCNC(=O)CC[C@H](NC(=O)CCCCCCCCCCCCCCCCCCC(=O)O)C(=O)O)C(=O)N[C@@H](Cc1c[nH]cn1)C(=O)N[C@@H](CCC(N)=O)C(=O)NC(C)(C)C(=O)N[C@@H](CC(=O)O)C(=O)N[C@@H](Cc1ccccc1)C(=O)N[C@H](C(=O)N[C@@H](CCC(=O)O)C(=O)N[C@@H](Cc1ccncc1)C(=O)N[C@@H](CC(C)C)C(=O)N[C@@H](CC(C)C)C(=O)N[C@@H](CCC(=O)O)C(=O)N[C@@H](C)C(=O)NCC(=O)N1CCC[C@H]1C(=O)N[C@@H](CO)C(=O)N[C@@H](CO)C(=O)NCC(=O)N[C@@H](C)C(=O)N1CCC[C@H]1C(=O)N1CCC[C@H]1C(=O)N1CCC[C@H]1C(=O)N[C@@H](CO)C(N)=O)C(C)C [Example 43] (H-Y[Aib]EGT[αMeF]ISDYSIALDKK([AEEA-AEEA-γGlu-C20 diacid])HQ[Aib]DFVE[4Pal]LLEAGPSSGAPPPS-NH2), which Ki [1] is on record?
A: 605 nM

Q: And the Ki [2]?
A: 0.0366 nM

Q: Which results are given for CC[C@H](C)[C@H](NC(=O)[C@H](Cc1ccccc1)NC(=O)[C@@H](NC(=O)CNC(=O)[C@H](CCC(=O)O)NC(=O)C(C)(C)NC(=O)[C@@H](N)Cc1ccc(O)cc1)[C@@H](C)O)C(=O)N[C@@H](CO)C(=O)N[C@@H](CC(=O)O)C(=O)N[C@@H](Cc1ccc(O)cc1)C(=O)N[C@@H](CO)C(=O)N[C@H](C(=O)N[C@@](C)(CC(C)C)C(=O)N[C@@H](CC(C)C)C(=O)N[C@@H](CC(=O)O)C(=O)N[C@@H](CCCCN)C(=O)N[C@@H](CCCCNC(=O)COCCOCCNC(=O)COCCOCCNC(=O)CC[C@H](NC(=O)CCCCCCCCCCCCCCCCCCC(=O)O)C(=O)O)C(=O)N[C@@H](Cc1c[nH]cn1)C(=O)N[C@@H](CCC(N)=O)C(=O)NC(C)(C)C(=O)N[C@@H](CC(=O)O)C(=O)N[C@@](C)(Cc1ccccc1)C(=O)N[C@H](C(=O)N[C@@H](CCC(=O)O)C(=O)N[C@@H](Cc1ccncc1)C(=O)N[C@@H](CC(C)C)C(=O)N[C@@H](CC(C)C)C(=O)N[C@@H](C)C(=O)NCC(=O)NCC(=O)N1CCC[C@H]1C(=O)N[C@@H](CO)C(=O)N[C@@H](CO)C(=O)NCC(=O)N[C@@H](C)C(=O)N1CCC[C@H]1C(=O)N1CCC[C@H]1C(=O)N1CCC[C@H]1C(=O)N[C@@H](CO)C(N)=O)C(C)C)[C@@H](C)CC [Example 56]?
A: Ki [1]: 530 nM; Ki [2]: 0.0487 nM

Q: Which Ki [1] does the source give for CC[C@H](C)[C@H](NC(=O)[C@H](CO)NC(=O)[C@H](Cc1ccc(O)cc1)NC(=O)[C@H](CC(=O)O)NC(=O)[C@H](CO)NC(=O)[C@@H](NC(=O)[C@H](CC(C)C)NC(=O)[C@@H](NC(=O)CNC(=O)[C@H](CCC(=O)O)NC(=O)[C@@H](C)NC(=O)[C@@H](N)Cc1ccc(O)cc1)[C@@H](C)O)[C@@H](C)CC)C(=O)N[C@@H](CC(C)C)C(=O)N[C@@H](CC(C)C)C(=O)N[C@@H](CC(=O)O)C(=O)N[C@@H](CCCCN)C(=O)N[C@@H](CCCCNC(=O)COCCOCCNC(=O)COCCOCCNC(=O)CC[C@H](NC(=O)CCCCCCCCCCCCCCCCC(=O)O)C(=O)O)C(=O)N[C@@H](C)C(=O)N[C@@H](CCC(N)=O)C(=O)NC(C)(C)C(=O)N[C@@H](CC(=O)O)C(=O)N[C@@H](Cc1ccccc1)C(=O)N[C@H](C(=O)N[C@@H](CC(N)=O)C(=O)N[C@@H](Cc1c[nH]c2ccccc12)C(=O)N[C@@H](CC(C)C)C(=O)N[C@@H](CC(C)C)C(=O)N[C@@H](C)C(=O)N[C@@H](CCC(N)=O)C(=O)NCC(=O)N1CCC[C@H]1C(=O)N[C@@H](CO)C(=O)N[C@@H](CO)C(=O)NCC(=O)N[C@@H](C)C(=O)N1CCC[C@H]1C(=O)N1CCC[C@H]1C(=O)N1CCC[C@H]1C(=O)N[C@@H](CO)C(N)=O)C(C)C [Example 32] (H-Y[dA]EGTLISDYSILLDKK([AEEA-AEEA-γGlu-C18 diacid])AQ[Aib]DFVNWLLAQGPSSGAPPPS-NH2) here?
A: 85.2 nM

Q: And the Ki [2]?
A: 0.0343 nM

Q: How did the Ki [1] turn out when CC[C@H](C)[C@H](NC(=O)[C@H](CO)NC(=O)[C@H](Cc1ccc(O)cc1)NC(=O)[C@H](CC(=O)O)NC(=O)[C@H](CO)NC(=O)[C@@H](NC(=O)[C@](C)(Cc1ccccc1)NC(=O)[C@@H](NC(=O)CNC(=O)[C@H](CCC(=O)O)NC(=O)C(C)(C)NC(=O)[C@@H](N)Cc1ccc(O)cc1)[C@@H](C)O)[C@@H](C)CC)C(=O)N[C@@H](C)C(=O)N[C@@H](CC(C)C)C(=O)N[C@@H](CC(=O)O)C(=O)N[C@@H](CCCCN)C(=O)N[C@@H](CCCCNC(=O)COCCOCCNC(=O)COCCOCCNC(=O)CC[C@H](NC(=O)CCCCCCCCCCCCCCCCCCC(=O)O)C(=O)O)C(=O)N[C@@H](Cc1c[nH]cn1)C(=O)N[C@@H](CCC(N)=O)C(=O)NC(C)(C)C(=O)N[C@@H](CC(=O)O)C(=O)N[C@@H](Cc1ccccc1)C(=O)N[C@H](C(=O)N[C@@H](CCC(=O)O)C(=O)N[C@@H](Cc1ccncc1)C(=O)N[C@@H](CC(C)C)C(=O)N[C@@H](CC(C)C)C(=O)N[C@@H](CCC(=O)O)C(=O)N[C@H](C(=O)NCC(=O)N1CCC[C@H]1C(=O)N[C@@H](CO)C(=O)N[C@@H](CO)C(=O)NCC(=O)N[C@@H](C)C(=O)N1CCC[C@H]1C(=O)N1CCC[C@H]1C(=O)N1CCC[C@H]1C(=O)N[C@@H](CO)C(N)=O)[C@@H](C)O)C(C)C [Example 41] (H-Y[Aib]EGT[αMeF]ISDYSIALDKK([AEEA-AEEA-γGlu-C20 diacid])HQ[Aib]DFVE[4Pal]LLETGPSSGAPPPS-NH2) was run?
A: > 906 nM

Q: What about the Ki [2] of the same molecule?
A: 0.143 nM
